# From PubChem BioAssay AID330 (DTP/NCI, 2004)
# Several values for one entry are separate records, joined by “and”; a condition that tells them apart may be missing. Equal values may be shown once. Inconclusive results and toxic doses are left out.
# Test system: P388 leukemia ip, CD2F1 mice, survival T/C
# Experiment: NCI In Vivo Anticancer Drug Screen. Data for tumor model P388 Leukemia (intraperitoneal) in CD2F1 (CDF1) mice
# Conditions: endpoint: median survival time, higher = longer survival
# Procedure, shortened: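 Mice carrying the transplanted tumor received test compound or vehicle. Survival was recorded in each group, and the value is the treated-group measurement divided by that of the vehicle-treated control group.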
# [1] = dose: 12.5 mg/kg/injection, schedule: Q01DX005 (ip), vehicle: saline with Tween-80
# [2] = dose: 25.0 mg/kg/injection, schedule: Q01DX005 (ip), vehicle: saline with Tween-80
# [3] = dose: 50.0 mg/kg/injection, schedule: Q01DX005 (ip), vehicle: saline with Tween-80
# [4] = dose: 3.13 mg/kg/injection, schedule: Q01DX009 (ip), vehicle: saline with Tween-80
# [5] = dose: 6.25 mg/kg/injection, schedule: Q01DX009 (ip), vehicle: saline with Tween-80
# [6] = dose: 12.5 mg/kg/injection, schedule: Q01DX009 (ip), vehicle: saline with Tween-80
# [7] = dose: 25.0 mg/kg/injection, schedule: Q01DX009 (ip), vehicle: saline with Tween-80
# [8] = dose: 50.0 mg/kg/injection, schedule: Q01DX009 (ip), vehicle: saline with Tween-80
# [9] = dose: 100.0 mg/kg/injection, schedule: Q01DX009 (ip), vehicle: saline with Tween-80
smiles,measurement,setting,value
NC(=O)CCC(NC(=O)OCC1c2ccccc2-c2ccccc21)C(=O)O (configuration not stated),T/C,"dose: 50.0 mg/kg/injection, schedule: Q01DX005 (ip), vehicle: Klucel (hydroxypropylcellulose) (HPC)",104 % of control
same,T/C,"dose: 100.0 mg/kg/injection, schedule: Q01DX005 (ip), vehicle: Klucel (hydroxypropylcellulose) (HPC)",103 % of control
same,T/C,"dose: 200.0 mg/kg/injection, schedule: Q01DX005 (ip), vehicle: Klucel (hydroxypropylcellulose) (HPC)",104 % of control
Cn1c(-c2ccccc2)c(COC(=O)NC2CCCCC2)c(COC(=O)NC2CCCCC2)c1-c1ccc(Cl)cc1,T/C,"dose: 3.13 mg/kg/injection, schedule: Q01DX009 (ip), vehicle: distilled water + Tween-80",109 % of control
same,T/C,"dose: 6.25 mg/kg/injection, schedule: Q01DX009 (ip), vehicle: distilled water + Tween-80",105 % of control
same,T/C,"dose: 50.0 mg/kg/injection, schedule: Q01DX009 (ip), vehicle: distilled water + Tween-80",178 % of control
same,T/C,"dose: 75.0 mg/kg/injection, schedule: Q01DX009 (ip), vehicle: distilled water + Tween-80",175 % of control
CCCCCOC(=O)c1ccccc1N,T/C,"dose: 12.5 mg/kg/injection, schedule: Q01DX009 (ip), vehicle: Klucel (hydroxypropylcellulose) (HPC)",105 % of control
same,T/C,"dose: 25.0 mg/kg/injection, schedule: Q01DX009 (ip), vehicle: Klucel (hydroxypropylcellulose) (HPC)",104 % of control
same,T/C,"dose: 50.0 mg/kg/injection, schedule: Q01DX009 (ip), vehicle: Klucel (hydroxypropylcellulose) (HPC)",102 % of control and 103 % of control
same,T/C,"dose: 100.0 mg/kg/injection, schedule: Q01DX009 (ip), vehicle: Klucel (hydroxypropylcellulose) (HPC)",91 % of control
CCOc1c(Br)cc(/C=C/[N+](=O)[O-])cc1OC,T/C,"dose: 3.75 mg/kg/injection, schedule: Q01DX005 (ip), vehicle: saline with Tween-80",103 % of control
same,T/C,"dose: 7.5 mg/kg/injection, schedule: Q01DX005 (ip), vehicle: saline with Tween-80",112 % of control and 116 % of control
same,T/C,"dose: 15.0 mg/kg/injection, schedule: Q01DX005 (ip), vehicle: saline with Tween-80",109 % of control and 120 % of control
same,T/C,"dose: 30.0 mg/kg/injection, schedule: Q01DX005 (ip), vehicle: saline with Tween-80",120 % of control
COc1cc(NCCCCCNC(C)C(C)C)c2ncccc2c1 (configuration not stated),T/C,[1],93 % of control
same,T/C,[2],95 % of control
same,T/C,[3],100 % of control and 96 % of control
Cc1ccc(NC(=O)Oc2cc(C)c(Br)c(C)c2)cc1[N+](=O)[O-],T/C,"dose: 12.5 mg/kg/injection, schedule: Q01DX009 (ip), vehicle: saline",95 % of control
same,T/C,"dose: 25.0 mg/kg/injection, schedule: Q01DX009 (ip), vehicle: saline",97 % of control
same,T/C,"dose: 50.0 mg/kg/injection, schedule: Q01DX009 (ip), vehicle: saline + alcohol",98 % of control
same,T/C,"dose: 50.0 mg/kg/injection, schedule: Q01DX009 (ip), vehicle: saline",101 % of control
same,T/C,"dose: 200.0 mg/kg/injection, schedule: Q01DX009 (ip), vehicle: saline + alcohol",100 % of control
NC(=O)N/N=C1/CCC(OC(=O)c2ccccc2)CC1CC(=O)O (configuration not stated),T/C,[3],100 % of control
same,T/C,"dose: 100.0 mg/kg/injection, schedule: Q01DX005 (ip), vehicle: saline with Tween-80",100 % of control
same,T/C,"dose: 200.0 mg/kg/injection, schedule: Q01DX005 (ip), vehicle: saline with Tween-80",100 % of control
CCOC(=O)CCC[P+](c1ccccc1)(c1ccccc1)c1ccccc1,T/C,"dose: 5.33 mg/kg/injection, schedule: Q01DX009 (ip), vehicle: saline with Tween-80",109 % of control
same,T/C,"dose: 8.0 mg/kg/injection, schedule: Q01DX009 (ip), vehicle: saline with Tween-80",118 % of control
same,T/C,"dose: 12.0 mg/kg/injection, schedule: Q01DX009 (ip), vehicle: saline with Tween-80",109 % of control
O=C1C2=C(Nc3cc(Cl)ccc3N2)OC1c1ccc2c(c1)OCO2 (configuration not stated),T/C,"dose: 60.0 mg/kg/injection, schedule: Q01DX005 (ip), vehicle: Klucel (hydroxypropylcellulose) (HPC)",101 % of control
same,T/C,"dose: 120.0 mg/kg/injection, schedule: Q01DX005 (ip), vehicle: Klucel (hydroxypropylcellulose) (HPC)",98 % of control
same,T/C,"dose: 240.0 mg/kg/injection, schedule: Q01DX005 (ip), vehicle: Klucel (hydroxypropylcellulose) (HPC)",101 % of control
C[N+](C)(CCCCCC[N+](C)(C)C1c2ccccc2-c2ccccc21)C1c2ccccc2-c2ccccc21,T/C,"dose: 0.13 mg/kg/injection, schedule: Q01DX009 (ip), vehicle: saline",105 % of control
same,T/C,"dose: 0.25 mg/kg/injection, schedule: Q01DX009 (ip), vehicle: saline",105 % of control
same,T/C,"dose: 0.5 mg/kg/injection, schedule: Q01DX009 (ip), vehicle: saline",102 % of control
same,T/C,"dose: 1.0 mg/kg/injection, schedule: Q01DX009 (ip), vehicle: saline",101 % of control
CC(C)C(=O)c1ccco1,T/C,[4],90 % of control
same,T/C,[5],100 % of control
same,T/C,[6],100 % of control
COc1ccc(/C=N\NC(=O)CNC(=O)Nc2cccc(C(F)(F)F)c2)cc1OC,T/C,[4],112 % of control
same,T/C,[5],108 % of control
same,T/C,[6],91 % of control
N=C(N)SCC[n+]1cccc2cccc(O)c21,T/C,"dose: 100.0 mg/kg/injection, schedule: Q04DX002 (ip), vehicle: saline",98 % of control
same,T/C,"dose: 200.0 mg/kg/injection, schedule: Q04DX002 (ip), vehicle: saline",100 % of control
Cc1c(N)nc(C(CC(N)=O)NCC(N)C(N)=O)nc1C(=O)NC(C(=O)NC(C)C(O)C(C)C(=O)NC(C(=O)NCCc1nc(-c2nc(C(=O)NCCCNCCCc3ccccn3)cs2)cs1)C(C)O)C(OC1OC(CO)C(O)C(O)C1OC1OC(CO)C(O)C(OC(N)=O)C1O)c1cnc[nH]1 (configuration not stated),T/C,"dose: 0.25 mg/kg/injection, schedule: Q01DX009 (ip), vehicle: water",110 % of control
same,T/C,"dose: 0.5 mg/kg/injection, schedule: Q01DX009 (ip), vehicle: water",104 % of control
same,T/C,"dose: 1.0 mg/kg/injection, schedule: Q01DX009 (ip), vehicle: water",111 % of control
same,T/C,"dose: 2.0 mg/kg/injection, schedule: Q01DX009 (ip), vehicle: water",101 % of control
same,T/C,"dose: 4.0 mg/kg/injection, schedule: Q01DX009 (ip), vehicle: saline",104 % of control
same,T/C,"dose: 8.0 mg/kg/injection, schedule: Q01DX009 (ip), vehicle: saline",104 % of control
same,T/C,"dose: 16.0 mg/kg/injection, schedule: Q01DX009 (ip), vehicle: saline",112 % of control
same,T/C,"dose: 32.0 mg/kg/injection, schedule: Q01DX009 (ip), vehicle: saline",105 % of control
CC1=NC2=NC(CCCC(=O)OCc3ccc(Cl)c(Cl)c3)=NC3=CC=CC(=N1)N32,T/C,[7],101 % of control
same,T/C,[8],111 % of control
same,T/C,[9],95 % of control
CC1CCC(c2ccccc2)(c2ccccc2)C1=O (configuration not stated),T/C,"dose: 100.0 mg/kg/injection, schedule: Q01DX001 (ip), vehicle: Klucel (hydroxypropylcellulose) (HPC)",96 % of control
same,T/C,"dose: 200.0 mg/kg/injection, schedule: Q01DX001 (ip), vehicle: Klucel (hydroxypropylcellulose) (HPC)",100 % of control
same,T/C,"dose: 400.0 mg/kg/injection, schedule: Q01DX001 (ip), vehicle: Klucel (hydroxypropylcellulose) (HPC)",96 % of control
Cc1ccc(C[n+]2ccc3c([N+](=O)[O-])cccc3c2)cc1,T/C,[5],112 % of control
same,T/C,[6],113 % of control
same,T/C,[7],114 % of control
O=C1[N-]C(=S)c2cccn21.O=C1[N-]C(=S)c2cccn21.[Pt+2],T/C,"dose: 6.25 mg/kg/injection, schedule: Q01DX005 (ip), vehicle: saline with Tween-80",104 % of control
same,T/C,[1],107 % of control
same,T/C,[2],105 % of control
same,T/C,[3],105 % of control
CCC12COC3(C)CCC(C)(OC1)N23 (configuration not stated),T/C,"dose: 50.0 mg/kg/injection, schedule: Q01DX005 (ip), vehicle: saline",100 % of control
same,T/C,[8],91 % of control
same,T/C,"dose: 100.0 mg/kg/injection, schedule: Q01DX005 (ip), vehicle: saline",100 % of control
same,T/C,[9],91 % of control
same,T/C,"dose: 200.0 mg/kg/injection, schedule: Q01DX005 (ip), vehicle: saline",103 % of control
same,T/C,"dose: 200.0 mg/kg/injection, schedule: Q01DX009 (ip), vehicle: saline with Tween-80",98 % of control
CCC(O)C#C[Si](C)(C)C (configuration not stated),T/C,"dose: 60.0 mg/kg/injection, schedule: Q01DX005 (ip), vehicle: saline",97 % of control
same,T/C,"dose: 120.0 mg/kg/injection, schedule: Q01DX005 (ip), vehicle: saline",100 % of control
same,T/C,"dose: 240.0 mg/kg/injection, schedule: Q01DX005 (ip), vehicle: saline",103 % of control
N#Cc1c(NCc2ccccc2)nc2c3ccccc3ccn2c1=O,T/C,"dose: 25.0 mg/kg/injection, schedule: Q04DX002 (ip), vehicle: saline with Tween-80",95 % of control
same,T/C,"dose: 50.0 mg/kg/injection, schedule: Q04DX002 (ip), vehicle: saline with Tween-80",97 % of control
same,T/C,"dose: 100.0 mg/kg/injection, schedule: Q04DX002 (ip), vehicle: saline with Tween-80",95 % of control
Cc1c(-c2ccccc2)ccnc1/C=N/NC(=S)NCCc1ccccn1,T/C,[5],113 % of control
same,T/C,[6],107 % of control and 111 % of control
same,T/C,[7],115 % of control and 117 % of control
same,T/C,[8],120 % of control and 122 % of control
same,T/C,[9],86 % of control
